Several values for one entry are separate records, joined by “and”; a condition that tells them apart may be missing. Identical values can stand only once. ± gives the expanded uncertainty stated by the source.
Details: 101.33 kPa, Liquid; for mass density: Vibrating tube method; for viscosity: Vibrating wire viscometry

## CCOS(=O)(=O)[O-].CCn1cc[n+](C)c1 [1-ethyl-3-methylimidazolium ethyl sulfate]
288.15 K
  mass density: 1245.23 ± 1.1 kg/m3
288.16 K
  mass density: 1245.23 ± 1.1 kg/m3
290.64 K
  mass density: 1243.55 ± 1.1 kg/m3
290.65 K
  mass density: 1243.55 ± 1.1 kg/m3
293.14 K
  mass density: 1241.85 ± 1.1 kg/m3
  viscosity: 128.2 ± 3.2 mPa·s
293.15 K
  mass density: 1241.85 ± 1.1 kg/m3
295.65 K
  mass density: 1240.17 ± 1.1 kg/m3 and 1240.15 ± 1.1 kg/m3
298.15 K
  mass density: 1238.47 ± 1.1 kg/m3 and 1238.45 ± 1.1 kg/m3
298.19 K
  viscosity: 98.87 ± 2.3 mPa·s
298.2 K
  viscosity: 98.63 ± 2.3 mPa·s
300.65 K
  mass density: 1236.77 ± 1.1 kg/m3 and 1236.76 ± 1.1 kg/m3
303.15 K
  mass density: 1235.08 ± 1.1 kg/m3 and 1235.06 ± 1.1 kg/m3
303.16 K
  viscosity: 77.83 ± 1.7 mPa·s
305.65 K
  mass density: 1233.38 ± 1.1 kg/m3
308.15 K
  mass density: 1231.69 ± 1.1 kg/m3
308.19 K
  viscosity: 62.54 ± 1.3 mPa·s
310.64 K
  mass density: 1230.01 ± 1.1 kg/m3
310.65 K
  mass density: 1230.01 ± 1.1 kg/m3
313.14 K
  mass density: 1228.32 ± 1.1 kg/m3
  viscosity: 51.1 ± 1.1 mPa·s
315.65 K
  mass density: 1226.63 ± 1.1 kg/m3 and 1226.64 ± 1.1 kg/m3
318.14 K
  viscosity: 42.22 ± 0.89 mPa·s
318.15 K
  mass density: 1224.95 ± 1.1 kg/m3
320.64 K
  mass density: 1223.27 ± 1.1 kg/m3 and 1223.28 ± 1.1 kg/m3
323.1 K
  viscosity: 35.37 ± 0.74 mPa·s
323.14 K
  mass density: 1221.6 ± 1.1 kg/m3
323.15 K
  mass density: 1221.6 ± 1.1 kg/m3
325.64 K
  mass density: 1219.92 ± 1.1 kg/m3
325.65 K
  mass density: 1219.92 ± 1.1 kg/m3
328.15 K
  mass density: 1218.26 ± 1.1 kg/m3

## CCOS(=O)(=O)[O-].CC[n+]1cccc(C)c1 [1-ethyl-3-methylpyridinium ethylsulfate]
293.13 K
  viscosity: 181.5 ± 5.2 mPa·s
293.15 K
  mass density: 1225.08 ± 1.1 kg/m3
293.16 K
  mass density: 1225.08 ± 1.1 kg/m3
295.64 K
  mass density: 1223.43 ± 1.1 kg/m3
295.65 K
  mass density: 1223.43 ± 1.1 kg/m3
298.15 K
  mass density: 1221.79 ± 1.1 kg/m3
298.16 K
  mass density: 1221.8 ± 1.1 kg/m3
298.18 K
  viscosity: 133.7 ± 3.4 mPa·s
298.2 K
  viscosity: 133.8 ± 3.5 mPa·s
300.65 K
  mass density: 1220.15 ± 1.1 kg/m3
300.66 K
  mass density: 1220.15 ± 1.1 kg/m3
303.13 K
  viscosity: 102.1 ± 2.4 mPa·s
303.14 K
  mass density: 1218.51 ± 1.1 kg/m3
303.15 K
  mass density: 1218.5 ± 1.1 kg/m3
305.64 K
  mass density: 1216.85 ± 1.1 kg/m3
305.65 K
  mass density: 1216.85 ± 1.1 kg/m3
308.15 K
  mass density: 1215.21 ± 1.1 kg/m3 and 1215.2 ± 1.1 kg/m3
308.16 K
  viscosity: 79.18 ± 1.7 mPa·s
310.65 K
  mass density: 1213.56 ± 1.1 kg/m3
310.66 K
  mass density: 1213.56 ± 1.1 kg/m3
313.14 K
  viscosity: 62.73 ± 1.3 mPa·s
313.15 K
  mass density: 1211.91 ± 1.1 kg/m3
315.65 K
  mass density: 1210.27 ± 1.1 kg/m3
315.66 K
  mass density: 1210.27 ± 1.1 kg/m3
318.08 K
  viscosity: 50.65 ± 1.1 mPa·s
318.15 K
  mass density: 1208.63 ± 1.1 kg/m3 and 1208.64 ± 1.1 kg/m3
320.65 K
  mass density: 1207 ± 1.1 kg/m3

## CCCCCC[n+]1ccn(C)c1.O=S(=O)([N-]S(=O)(=O)C(F)(F)F)C(F)(F)F
288.15 K
  mass density: 1381.24 ± 1.1 kg/m3
293.14 K
  viscosity: 90.27 ± 2.1 mPa·s
293.16 K
  mass density: 1376.63 ± 1.1 kg/m3
298.16 K
  mass density: 1372.04 ± 1.1 kg/m3
298.18 K
  viscosity: 70.9 ± 1.5 mPa·s and 70.95 ± 1.5 mPa·s
303.13 K
  viscosity: 56.93 ± 1.2 mPa·s
303.15 K
  mass density: 1367.46 ± 1.1 kg/m3
303.16 K
  mass density: 1367.45 ± 1.1 kg/m3
308.13 K
  viscosity: 46.15 ± 0.97 mPa·s
308.16 K
  mass density: 1362.88 ± 1.1 kg/m3
313.09 K
  viscosity: 38.05 ± 0.8 mPa·s
313.15 K
  mass density: 1358.32 ± 1.1 kg/m3
318.1 K
  viscosity: 31.74 ± 0.67 mPa·s
318.15 K
  mass density: 1353.76 ± 1.1 kg/m3
318.16 K
  mass density: 1353.77 ± 1.1 kg/m3
323.1 K
  viscosity: 26.73 ± 0.56 mPa·s
323.15 K
  mass density: 1349.23 ± 1.1 kg/m3
323.16 K
  mass density: 1349.24 ± 1.1 kg/m3
328.15 K
  mass density: 1344.72 ± 1.1 kg/m3

— the NIST ThermoML archive (doi:10.1016/j.fluid.2013.05.012)
